Experiment [1] is described as follows: Antagonist activity against human CXCR3 expressed in human PBMC assessed as inhibition of cell migration in response to ITAC in plasma.
The nature of experiment [2]: Antagonist activity against human CXCR3 expressed in human PBMC assessed as inhibition of cell migration in response to ITAC in RPMI buffer.
Experiment [3] can be described thus: Antagonist activity against human CXCR3 expressed in human PBMC assessed as inhibition of cell migration in response to MIG in buffer.
Experiment [4] in a line: Antagonist activity against human CXCR3 expressed in human PBMC assessed as inhibition of cell migration in response to IP10 in buffer.

As to `CCOc1ccc(-n2c([C@@H](C)N(CCS(=O)(=O)CC)C(=O)Cc3ccc(F)c(C(F)(F)F)c3)nc3ncccc3c2=O)cc1` [(R)-N-(1-(3-(4-ethoxyphenyl)-4-oxo-3,4-dihydropyrido[2,3-d]pyrimidin-2-yl)ethyl)-N-(2-(ethylsulfonyl)ethyl)-2-(4-fluoro-3-(trifluoromethyl)phenyl)acetamide], the half-maximal inhibitory concentration (IC50) (usually the point on the concentration scale where inhibition reaches its midpoint) in experiment [1] turned out to be 0.022 µM. For the compound `CCOc1ccc(-n2c([C@@H](C)N(Cc3cccnc3)C(=O)Cc3cc(C(F)(F)F)cc(C(F)(F)F)c3)nc3ccccc3c2=O)cc1` [(R)-2-(3,5-bis(trifluoromethyl)phenyl)-N-(1-(3-(4-ethoxyphenyl)-4-oxo-3,4-dihydroquinazolin-2-yl)ethyl)-N-(pyridin-3-ylmethyl)acetamide], in experiment [1], the IC50 was determined as 0.017 µM. For the compound `CCOc1ccc(-n2c([C@@H](C)N(C[C@@H]3CCCN3C(C)C)C(=O)Cc3ccc(F)c(C(F)(F)F)c3)nc3ncccc3c2=O)cc1` [N-((R)-1-(3-(4-ethoxyphenyl)-4-oxo-3,4-dihydropyrido[2,3-d]pyrimidin-2-yl)ethyl)-2-(4-fluoro-3-(trifluoromethyl)phenyl)-N-(((S)-1-isopropylpyrrolidin-2-yl)methyl)acetamide], in experiment [1], the IC50 worked out at 0.08 µM.

`CCOc1ccc(-n2c([C@@H](C)N(Cc3cccnc3)C(=O)Cc3ccc(F)c(C(F)(F)F)c3)nc3ncccc3c2=O)cc1` [(R)-N-(1-(3-(4-ethoxyphenyl)-4-oxo-3,4-dihydropyrido[2,3-d]pyrimidin-2-yl)ethyl)-2-(4-fluoro-3-(trifluoromethyl)phenyl)-N-(pyridin-3-ylmethyl)acetamide]: in experiment [1], the IC50 amounted to 0.02 µM. With `CCOc1ccc(-n2c([C@@H](C)N(Cc3cccnc3)C(=O)Cc3ccc(F)c(C(F)(F)F)c3)nc3cnccc3c2=O)cc1` [(R)-N-(1-(3-(4-ethoxyphenyl)-4-oxo-3,4-dihydropyrido[3,4-d]pyrimidin-2-yl)ethyl)-2-(4-fluoro-3-(trifluoromethyl)phenyl)-N-(pyridin-3-ylmethyl)acetamide], in experiment [1], the IC50 was found to be 0.023 µM.

Regarding `CCOc1ccc(-n2c([C@@H](C)N(C(=O)Cc3ccc(F)c(C(F)(F)F)c3)C3CCN(C(C)C)CC3)nc3ncccc3c2=O)cc1` [(R)-N-(1-(3-(4-ethoxyphenyl)-4-oxo-3,4-dihydropyrido[2,3-d]pyrimidin-2-yl)ethyl)-2-(4-fluoro-3-(trifluoromethyl)phenyl)-N-(1-isopropylpiperidin-4-yl)acetamide], in experiment [1], the IC50 worked out at 0.005 µM. `CCOc1ccc(-n2c([C@@H](C)N(C(=O)Cc3ccc(F)c(C(F)(F)F)c3)C3CCN(C(C)=O)CC3)nc3ncccc3c2=O)cc1` [(R)-N-(1-acetylpiperidin-4-yl)-N-(1-(3-(4-ethoxyphenyl)-4-oxo-3,4-dihydropyrido[2,3-d]pyrimidin-2-yl)ethyl)-2-(4-fluoro-3-(trifluoromethyl)phenyl)acetamide]: the IC50 in experiment [1] stood at 0.131 µM. Same read-out and setting: as for `CCOc1ccc(-n2c([C@@H](C)N(Cc3cccnc3)C(=O)Cn3cnc(C(F)(F)F)c3)nc3ccccc3c2=O)cc1` [(R)-N-(1-(3-(4-ethoxyphenyl)-4-oxo-3,4-dihydroquinazolin-2-yl)ethyl)-N-(pyridin-3-ylmethyl)-2-(4-(trifluoromethyl)-1H-imidazol-1-yl)acetamide], the figure is 0.45 µM; as for `CCOc1ccc(-n2c([C@@H](C)N(C[C@H]3CCCN3)C(=O)Cc3ccc(F)c(C(F)(F)F)c3)nc3ncccc3c2=O)cc1` [N-((R)-1-(3-(4-ethoxyphenyl)-4-oxo-3,4-dihydropyrido[2,3-d]pyrimidin-2-yl)ethyl)-2-(4-fluoro-3-(trifluoromethyl)phenyl)-N-((R)-pyrrolidin-2-ylmethyl)acetamide], 0.02 µM; as for `CCOc1ccc(-n2c([C@@H](C)N(C(=O)Cc3ccc(F)c(C(F)(F)F)c3)C3CCOCC3)nc3ncccc3c2=O)cc1` [(R)-N-(1-(3-(4-ethoxyphenyl)-4-oxo-3,4-dihydropyrido[2,3-d]pyrimidin-2-yl)ethyl)-2-(4-fluoro-3-(trifluoromethyl)phenyl)-N-(tetrahydro-2H-pyran-4-yl)acetamide], 0.162 µM. Take `CCOc1ccc(-n2c([C@@H](C)N(C[C@H]3CCCN3C(C)C)C(=O)Cc3ccc(F)c(C(F)(F)F)c3)nc3ncccc3c2=O)cc1` [N-((R)-1-(3-(4-ethoxyphenyl)-4-oxo-3,4-dihydropyrido[2,3-d]pyrimidin-2-yl)ethyl)-2-(4-fluoro-3-(trifluoromethyl)phenyl)-N-(((R)-1-isopropylpyrrolidin-2-yl)methyl)acetamide]: the IC50 in experiment [1] is 0.01 µM. Still for that read-out and setting: as for `CCOc1ccc(-n2c([C@@H](C)N(Cc3cc(C)no3)C(=O)Cc3ccc(F)c(C(F)(F)F)c3)nc3ncccc3c2=O)cc1` [(R)-N-(1-(3-(4-ethoxyphenyl)-4-oxo-3,4-dihydropyrido[2,3-d]pyrimidin-2-yl)ethyl)-2-(4-fluoro-3-(trifluoromethyl)phenyl)-N-((3-methylisoxazol-5-yl)methyl)acetamide], the figure is 0.059 µM. For the compound `CCOc1ccc(-n2c([C@@H](C)N(Cc3ccc[n+]([O-])c3)C(=O)Cc3ccc(OC(F)(F)F)cc3)nc3ncccc3c2=O)cc1` [(R)-3-((N-(1-(3-(4-ethoxyphenyl)-4-oxo-3,4-dihydropyrido[2,3-d]pyrimidin-2-yl)ethyl)-2-(4-(trifluoromethoxy)phenyl)acetamido)methyl)pyridine 1-oxide], the IC50 in experiment [1] was 0.058 µM. Turning to `CCS(=O)(=O)CCN(C(=O)Cc1ccc(F)c(C(F)(F)F)c1)[C@H](C)c1nc2ncccc2c(=O)n1-c1ccc(OCC(F)(F)F)cc1` [(R)-N-(2-(ethylsulfonyl)ethyl)-2-(4-fluoro-3-(trifluoromethyl)phenyl)-N-(1-(4-oxo-3-(4-(2,2,2-trifluoroethoxy)phenyl)-3,4-dihydropyrido[2,3-d]pyrimidin-2-yl)ethyl)acetamide], the IC50 came out at 0.015 µM in experiment [1], 0.0008 µM in experiment [2], 0.0006 µM in experiment [3] and 0.0004 µM in experiment [4].

Consider `CCOc1ccc(-n2c([C@@H](C)N(CC3CCN(C)CC3)C(=O)Cc3ccc(F)c(C(F)(F)F)c3)nc3ncccc3c2=O)cc1` [(R)-N-(1-(3-(4-ethoxyphenyl)-4-oxo-3,4-dihydropyrido[2,3-d]pyrimidin-2-yl)ethyl)-2-(4-fluoro-3-(trifluoromethyl)phenyl)-N-((1-methylpiperidin-4-yl)methyl)acetamide], for which, in experiment [1], the IC50 was found to be 0.02 µM.

For the origin of these results see BindingDB's records for doi:10.1016/j.bmcl.2009.07.032 (Amgen, 2009).
